From US11730717B1, “Melanin-inspired antimicrobial” (The Board of Regents for the Oklahoma Agricultural and …, priority 2020, dated 2023)

What was measured:
Type in all cases: cell-based
Deinoccus radiophilus = experiment: Disc agar diffusion assay; conditions: Group 2: Gram-positive organisms
Procedure: (§1) As a further test of an embodiment, the antibacterial properties of EIPE-1 were tested across a large panel of organisms. EIPE-1 was dissolved in DMSO, impregnated onto sterile filter paper disks, and DMSO served as the untreated control according to the following procedure: • 1. Prepare a 2.5 μg/μL stock solution of EIPE-1 by micro pipetting 200 μL of DMSO into 2.0 mL Eppendorf Tube containing 0.5 mg of EIPE-1. Dissolve with vortex agitation and store at 4° C. • 2. Use forceps to pick up sterile 6.0 mm blank paper disks. Make sure to touch only one side of disc as lightly as possible. While holding blank paper disc, deliver 10.0 μL of the 2.5 μg/μL EIPE-1 solution by touching the micropipette tip to the center of the blank paper disc. Lean the impregnated disc up against the side of a small sterile glass petri dish. Follow same procedure for DMSO control. Allow disks several hours to dry under flowing sterile air. • 3. Inoculate starter cultures using cells from working culture cultivated on Mueller-Hinton Agar (MHA; Difco Laboratories). Starters consist of ˜20 mL of Mueller-Hinton Broth (MHB; Difco Laboratories) in 125-mL culture flasks. Incubate starter cultures in an Excella E24 Benchtop Incubator Shaker (New Brunswick Scientific Co., Inc., Edison, N.J., USA) at 37° C. and 180 rpm for 15-18 hours. • 4. Pour at least 5.0 mL of NMB into 18-mL Kimax tubes. Use a Pasteur pipette to deliver enough of the starter culture cell suspension to reach an optical density (OD620) of 0.025 (Spectronic™ 20 optical spectrophotometer; Thermo Electron Corp., Madison, Wis., USA). Ensure that both transmittance and absorbance are set to 0.0 using a blank NMB sample. Incubate in rotary shaking incubator at 37° C. and 180 rpm until optical density reaches 0.1. • 5. Deliver 100 μL of test culture to the middle of a small 100 mm×15 mm Petri dish containing ˜⅛ in thickness of MHA. • 6. Saturate a sterile cotton swab with MHB by dipping the cotton swab into KIMAX® tube with MHB and then touch the swab to the north, south, east, and west side of the KIMAX® tube to remove excess broth. • 7. Streak the inoculum as follows: • a. Start in the center and make four straight lines to the 12, 3, 6, and 9 o'clock position on the petri dish. • b. Start at the 12 o'clock position and streak side to side all the way down the plate to the 6 o'clock position. […] Rotate the petri dish 90° and complete the same side to side streak all the way down the petri dish. • d. Complete step c. twice more. • e. Rotate petri dish 45° and complete the side-to-side streak. • f. Rotate petri dish 90° and complete the side-to-side streak. • 8. Use sterile forceps to transfer the DMSO control paper disc onto the agar surface and pat the paper disc down to ensure flush contact. Use the same technique to deliver EIPE-1 paper disc. • 9. Place petri dish at 4° C. for 1.0 hour to allow EIPE-1 diffusion in the absence of growth. • 10. Incubate petri dish at 37° C. for 18 hours. • 11. Observe for zones of growth inhibition surrounding disks. Measure diameter with electronic caliper and subtract 6.0-mm disc diameter. Results • a) Each organism was initially tested once to serve as a screen.

Enterococcus faecalis = experiment: Disc agar diffusion assay; conditions: Group 2: Gram-positive organisms
Procedure: as §1

[1] = tested on: Escherichia coli ATCC 25922; experiment: Disc agar diffusion assay; conditions: Group 1: Gram-negative organisms
Procedure: as §1

Escherichia coli K12413 = experiment: Disc agar diffusion assay; conditions: Group 1: Gram-negative organisms
Procedure: as §1

Lactococcus lactis = experiment: Disc agar diffusion assay
Procedure: as §1

[2] = tested on: Pasteurella moltocida P-1581; experiment: Disc agar diffusion assay; conditions: Group 1: Gram-negative organisms
Procedure: as §1

[3] = tested on: Pseudomonas aeruginosa ATCC 27853; experiment: Disc agar diffusion assay; conditions: Group 1: Gram-negative organisms
Procedure: as §1

[4] = tested on: Serratia entomophila ATCC 43705; experiment: Disc agar diffusion assay; conditions: Group 1: Gram-negative organisms
Procedure: as §1

[5] = tested on: Serratia fonticola ATCC 9844; experiment: Disc agar diffusion assay; conditions: Group 1: Gram-negative organisms
Procedure: as §1

Serratia marcescens 8100 = experiment: Disc agar diffusion assay; conditions: Group 1: Gram-negative organisms
Procedure: as §1

[6] = tested on: Serratia marcescens CO1-A; experiment: Disc agar diffusion assay; conditions: Group 1: Gram-negative organisms
Procedure: as §1

Serratia marcescens db11 = experiment: Disc agar diffusion assay; conditions: Group 1: Gram-negative organisms
Procedure: as §1

[7] = tested on: Serratia odorifera ATCC 53077; experiment: Disc agar diffusion assay; conditions: Group 1: Gram-negative organisms
Procedure: as §1

[8] = tested on: Serratia plymuthica ATCC 183; experiment: Disc agar diffusion assay; conditions: Group 1: Gram-negative organisms
Procedure: as §1

[9] = tested on: Staphylococcus aureus ATCC 29213; experiment: Disc agar diffusion assay
Procedure: as §1

[10] = tested on: Staphylococcus aureus SFL 64; experiment: Disc agar diffusion assay
Procedure: as §1

[11] = tested on: Staphylococcus aureus SFL 8; experiment: Disc agar diffusion assay
Procedure: as §1

[12] = tested on: Staphylococcus aureus T-5706; experiment: Disc agar diffusion assay
Procedure: as §1

P. moltocida P-1581 = experiment: MIC and MBC values (Table 2); conditions: Pasteurella, P1581
[13] = Group 3: Gram-positive organisms

SMILES: COC(=O)c1cc2c(C#Cc3ccc(OCCC[N+](C)(C)C)cc3)c(OC)c(OC)c(C#Cc3ccc(OCCC[N+](C)(C)C)cc3)c2n1C [EIPE-1, 3,3′-((((5,6-dimethoxy-2-(methoxycarbonyl)-1-methyl-1H-indole-4,7-diyl)bis(ethyne-2,1-diyl))bis(4,1-phenylene))bis(oxy))bis(N,N,N-trimethylpropan-1-aminium) iodide]
- susceptibility group in disc diffusion screen (Deinoccus radiophilus): resistant
- susceptibility group in disc diffusion screen (Enterococcus faecalis): resistant
- susceptibility group in disc diffusion screen [1]: resistant
- susceptibility group in disc diffusion screen (Escherichia coli K12413): resistant
- susceptibility group in disc diffusion screen (Lactococcus lactis; Group 2: Gram-positive organisms): resistant
- zone of inhibition at 25 µg/disc (Lactococcus lactis; Lactococcus lactis, L. lactis, 25 μg per disk, zone minus disk diameter (6.0mm), read-out: Inhibition Zone Diameter (mm) ± SD): 0.4 ± 0.6 mm
- susceptibility group in disc diffusion screen [2]: resistant
- susceptibility group in disc diffusion screen [3]: resistant
- susceptibility group in disc diffusion screen [4]: resistant
- susceptibility group in disc diffusion screen [5]: resistant
- susceptibility group in disc diffusion screen (Serratia marcescens 8100): resistant
- susceptibility group in disc diffusion screen [6]: resistant
- susceptibility group in disc diffusion screen (Serratia marcescens db11): resistant
- susceptibility group in disc diffusion screen [7]: resistant
- susceptibility group in disc diffusion screen [8]: resistant
- susceptibility group in disc diffusion screen [9, 13]: susceptible
- zone of inhibition at 25 µg/disc ([9]; Staphylococcus aureus, ATCC29213, S. aureus ATCC 29213, 25 μg per disk, zone minus disk diameter (6.0mm), read-out: Inhibition Zone Diameter (mm) ± SD): 2.2 ± 0.6 mm
- zone of inhibition at 250 µg/disc ([9]; Staphylococcus aureus, ATCC29213, S. aureus ATCC 29213, 250 μg per disk, zone minus disk diameter (6.0mm), read-out: Inhibition Zone Diameter (mm) ± SD): 2.9 ± 0.3 mm
- susceptibility group in disc diffusion screen [10, 13]: susceptible
- zone of inhibition at 25 µg/disc ([10]; Staphylococcus aureus, SFL64, S. aureus SFL 64, 25 μg per disk, zone minus disk diameter (6.0mm), read-out: Inhibition Zone Diameter (mm) ± SD): 2.5 ± 1.5 mm
- zone of inhibition at 250 µg/disc ([10]; Staphylococcus aureus, SFL64, S. aureus SFL 64, 250 μg per disk, zone minus disk diameter (6.0mm), read-out: Inhibition Zone Diameter (mm) ± SD): 2.5 ± 0.2 mm
- susceptibility group in disc diffusion screen [11, 13]: susceptible
- zone of inhibition at 25 µg/disc ([11]; Staphylococcus aureus, SFL8, S. aureus SFL 8, 25 μg per disk, zone minus disk diameter (6.0mm), read-out: Inhibition Zone Diameter (mm) ± SD): 2.4 ± 1.3 mm
- zone of inhibition at 250 µg/disc ([11]; Staphylococcus aureus, SFL8, S. aureus SFL 8, 250 μg per disk, zone minus disk diameter (6.0mm), read-out: Inhibition Zone Diameter (mm) ± SD): 2.4 ± 0.3 mm
- susceptibility group in disc diffusion screen [12, 13]: susceptible
- zone of inhibition at 25 µg/disc ([12]; Staphylococcus aureus, T5706, S. aureus T-5706, 25 μg per disk, zone minus disk diameter (6.0mm), read-out: Inhibition Zone Diameter (mm) ± SD): 2.1 ± 0.3 mm
- zone of inhibition at 250 µg/disc ([12]; Staphylococcus aureus, T5706, S. aureus T-5706, 250 μg per disk, zone minus disk diameter (6.0mm), read-out: Inhibition Zone Diameter (mm) ± SD): 2.2 ± 0.2 mm
- MBC (P. moltocida P-1581): 64 µg/mL
- MIC (P. moltocida P-1581): 64 µg/mL
